Experimental data from US12576093B2, “Pharmaceutical composition for subcutaneous administration” (MANNKIND CORPORATION, priority 2019, dated 2026).
“And” between values parts separate entries of the source, which are not always exact repeats. Identical values can stand only once.

Columns and labels:
[1] = oral; cited from earlier work
[2] = Pharmacokinetics after 24-hour subcutaneous infusion via fluid delivery device in male Beagle dogs (plasma, LC-MS/MS); conditions: for AUC(0-t): AUClast; for MRT last: MRTlast
[3] = Group 1, SC infusion 40 mg/animal, individual animals
[4] = SC infusion 76 mg/animal, individual animals
[5] = dogs, 40 mg/24 h and 76 mg/24 h SC infusion, both dosages
[6] = male, Beagle, dog, in vivo, sc, 3.21 mg/kg, Group 1, SC infusion, dose 3.21 mg/kg, mean
[7] = male, Beagle, dog, in vivo, sc, 5.45 mg/kg, Group 2, SC infusion, dose 5.45 mg/kg, mean
[8] = male, Beagle, dog, in vivo, sc, 40 mg, Group 1, SC infusion 40 mg/animal, mean
[9] = male, Beagle, dog, in vivo, sc, 40 mg/animal, Plasma concentration of CBD, Group 1, SC infusion 40 mg/animal, individual animals, BLOQ = below 1 ng/mL
[10] = male, Beagle, dog, in vivo, sc, 40 mg/animal, Plasma concentration of CBD, Group 1, SC infusion 40 mg/animal, mean (BLOQ samples excluded)
[11] = male, Beagle, dog, in vivo, sc, 76 mg, SC infusion 76 mg/animal, mean
[12] = male, Beagle, dog, in vivo, sc, 76 mg/animal, Plasma concentration of CBD, SC infusion 76 mg/animal, individual animals, BLOQ = below 1 ng/mL
[13] = male, Beagle, dog, in vivo, sc, 76 mg/animal, Plasma concentration of CBD, SC infusion 76 mg/animal, mean (BLOQ samples excluded)

Compound: C=C(C)[C@@H]1CCC(C)=C[C@H]1c1c(O)cc(CCCCC)cc1O [CBD, Cannabidiol]
- Fraction lost in the liver through the digestion [1]: approximately 94%
- AUClast [2, 3]: 363 ng·h/mL and 19.9 ng·h/mL and 127 ng·h/mL and 371 ng·h/mL
- Cmax [2, 3]: 14.2 ng/mL (2×) and 5.34 ng/mL and 5.83 ng/mL
- MRTlast [2, 3]: 26.0 h and 3.61 h and 16.3 h
- tmax [2, 3]: 30.0 hr (3×) and 3.00 hr
- Cmax ([2]; Group 1, SC infusion, dose 3.21 mg/kg, mean): 9.92 ng(mL
- Cmax ([2]; Group 2, SC infusion, dose 5.45 mg/kg, mean): 11.7 ng(mL
- AUClast [2, 4]: 217 ng·h/mL and 493 ng·h/mL and 129 ng·h/mL and 372 ng·h/mL
- Cmax [2, 4]: 10.3 ng/mL and 17.5 ng/mL and 5.24 ng/mL and 13.6 ng/mL
- MRTlast [2, 4]: 30.4 h and 18.9 h and 21.5 h
- tmax [2, 4]: 24.0 hr (2×) and 2.00 hr and 18.0 hr
- Absorption: first detection of CBD levels in blood [2, 5]: detected within an hour of the beginning of infusion
- Elimination: CBD detectability after end of infusion [2, 5]: still detectable 24 h after completion of fluid delivery device infusion
- Constancy of CBD concentration in the blood ([2]; group 1 (40 mg CBD/animal) and group 2 (76 mg CBD/animal), FIGS. 24 and 25): constant concentration of CBD in the blood with a minimal variation is reached after few hours
- AUC(0-t) [2, 6]: 221 ng·h/mL
- MRT last [2, 6]: 17.6 h
- tmax ([2]; male, Beagle, dog, in vivo, sc, 3.21 mg/kg, Tmax, Group 1, SC infusion, dose 3.21 mg/kg, mean): 23.3 h
- AUC(0-t) [2, 7]: 303 ng·h/mL
- MRT last [2, 7]: 24.3 h
- tmax ([2]; male, Beagle, dog, in vivo, sc, 5.45 mg/kg, Tmax, Group 2, SC infusion, dose 5.45 mg/kg, mean): 17 h
- AUC(0-t) [2, 8]: 221 ng·h/mL
- Cmax ([2]; male, Beagle, dog, in vivo, sc, 40 mg, Cmax, Group 1, SC infusion 40 mg/animal, mean): 9.92 ng/mL
- MRT last [2, 8]: 17.6 h
- tmax ([2]; male, Beagle, dog, in vivo, sc, 40 mg, tmax, Group 1, SC infusion 40 mg/animal, mean): 23.3 h
- concentration at 0.083 h ([2]; male, Beagle, dog, in vivo, sc, 40 mg/animal, Plasma concentration of CBD, Group 1, SC infusion 40 mg/animal, 0.083 hr, individual animals, BLOQ = below 1 ng/mL): 5.76 ng/mL
- concentration at 0.5 h ([2]; male, Beagle, dog, in vivo, sc, 40 mg/animal, Plasma concentration of CBD, Group 1, SC infusion 40 mg/animal, 0.5 hr, mean (BLOQ samples excluded)): 3.28 ng/mL
- concentration at 0.75 h [2, 9]: 2.83 ng/mL
- concentration at 0.75 h [2, 10]: 2.45 ng/mL
- concentration at 1 h [2, 10]: 2.63 ng/mL
- concentration at 2 h [2, 10]: 3.72 ng/mL
- concentration at 3 h [2, 10]: 7.36 ng/mL
- concentration at 4 h [2, 10]: 4.1 ng/mL
- concentration at 5 h [2, 10]: 5.11 ng/mL
- concentration at 6 h [2, 10]: 6.12 ng/mL
- concentration at 7 h [2, 10]: 5.53 ng/mL
- concentration at 8 h [2, 9]: 5.06 ng/mL
- concentration at 8 h [2, 10]: 6.03 ng/mL
- concentration at 10 h [2, 10]: 5.92 ng/mL
- concentration at 12 h [2, 9]: 4.47 ng/mL
- concentration at 12 h [2, 10]: 5.12 ng/mL
- concentration at 18 h [2, 9]: 3.31 ng/mL
- concentration at 24 h [2, 9]: 9.48 ng/mL
- concentration at 24 h [2, 10]: 8.82 ng/mL
- concentration at 30 h [2, 10]: 11.4 ng/mL
- concentration at 36 h ([2]; male, Beagle, dog, in vivo, sc, 40 mg/animal, Plasma concentration of CBD, Group 1, SC infusion 40 mg/animal, 36 hr, individual animals, BLOQ = below 1 ng/mL): 9.05 ng/mL
- concentration at 36 h ([2]; male, Beagle, dog, in vivo, sc, 40 mg/animal, Plasma concentration of CBD, Group 1, SC infusion 40 mg/animal, 36 hr, mean (BLOQ samples excluded)): 7.59 ng/mL
- concentration at 48 h ([2]; male, Beagle, dog, in vivo, sc, 40 mg/animal, Plasma concentration of CBD, Group 1, SC infusion 40 mg/animal, 48 hr, individual animals, BLOQ = below 1 ng/mL): 4.2 ng/mL
- concentration at 48 h ([2]; male, Beagle, dog, in vivo, sc, 40 mg/animal, Plasma concentration of CBD, Group 1, SC infusion 40 mg/animal, 48 hr, mean (BLOQ samples excluded)): 5.15 ng/mL
- AUC(0-t) [2, 11]: 303 ng·h/mL
- Cmax ([2]; male, Beagle, dog, in vivo, sc, 76 mg, Cmax, SC infusion 76 mg/animal, mean): 11.7 ng/mL
- MRT last ([2]; male, Beagle, dog, in vivo, sc, 76 mg, SC infusion 76 mg/animal, individual animals): 26.5 h
- MRT last [2, 11]: 24.3 h
- tmax ([2]; male, Beagle, dog, in vivo, sc, 76 mg, tmax, SC infusion 76 mg/animal, mean): 17 h
- concentration at 1 h [2, 12]: 3.73 ng/mL
- concentration at 1 h [2, 13]: 5.31 ng/mL
- concentration at 2 h [2, 12]: 3.69 ng/mL
- concentration at 2 h [2, 13]: 4.97 ng/mL
- concentration at 3 h [2, 13]: 4.38 ng/mL
- concentration at 4 h [2, 13]: 3.31 ng/mL
- concentration at 5 h [2, 12]: 2.42 ng/mL
- concentration at 5 h [2, 13]: 2.17 ng/mL
- concentration at 6 h [2, 13]: 5.35 ng/mL
- concentration at 7 h [2, 13]: 4.78 ng/mL
- concentration at 8 h [2, 13]: 5.14 ng/mL
- concentration at 10 h [2, 13]: 4.19 ng/mL
- concentration at 12 h [2, 13]: 6.03 ng/mL
- concentration at 18 h [2, 13]: 5.93 ng/mL
- concentration at 24 h [2, 13]: 9.68 ng/mL
- concentration at 30 h [2, 13]: 9.04 ng/mL
- concentration at 36 hr ([2]; male, Beagle, dog, in vivo, sc, 76 mg/animal, Plasma concentration of CBD, SC infusion 76 mg/animal, 36 hr, mean (BLOQ samples excluded)): 6.04 ng/mL
- concentration at 48 hr ([2]; male, Beagle, dog, in vivo, sc, 76 mg/animal, Plasma concentration of CBD, SC infusion 76 mg/animal, 48 hr, mean (BLOQ samples excluded)): 8.32 ng/mL
